Measurements published in patent US20060233705A1, “Diagnosis by determination of hyperactivity or increased expression of members of cell signaling pathways” (priority 2005, published 2006).

What was measured:
[1] = tested on: members of the MAPK and GPCR pathways; assay: ELISA of venous blood for MAPK and GPCR pathway members in NNK-treated hamsters; format: in vivo, Syrian Golden Hamsters; settings: blood one week after NNK 2.5 mg/100 g s.c. three times weekly for 10 weeks
Description: Syrian Golden Hamsters are injected subcutaneously with the tobacco-specific carcinogenic nitrosamine 4-(methylnitrosamino)-1-(3-pyridyl)-1-butanone (NNK) at a dosage of 2.5 mg/100 g bodyweight three times weekly for 10 weeks. […] Control hamsters are untreated. One week after the final NNK injection, approximately 250 microliters of venous blood is collected from the hamsters.
Antibodies that bind to phosphorylated or unphosphorylated members of the MAPK and GPCR pathways, including Raf, Ras, MEK, ERK, adenylate cyclase, cAMP, PKA, CREB, and PKC are purchased from commercial sources, including EMD Biosciences (San Diego, Calif.) (Raf, ERK), BD Biosciences Pharmingen (San Diego, Calif.) (Raf), Cell Signaling Technology (Beverly, Mass.) (Ras), Abgent (San Diego, Calif.) ([…]), GenWay Biotech Inc. (San Diego, Calif.) (adenylate cyclase), Abcam, Inc. (Cambridge, Mass.) (cAMP, PKA, PKC, Raf), and Upstate (Charlottesville, Va.) (CREB).
Paired antibodies for each of the above member of the MAPK and GPCR pathways are utilized as coating antibody and detection antibody in formulating an ELISA (Enzyme-Linked Immunosorbent Assay) for each of the members. […]
Briefly, a first antibody that binds to a member of the MAPK or GPCR pathway is bound to the wells on a microtiter plate. […] Then a stop solution is added to the wells and the color intensity of each well is measured using an ELISA plate reader.

[2] = tested on: human pulmonary adenocarcinoma cells; settings: in vitro; by increasing the release of arachidonic acid; cited from earlier work
[3] = tested on: pulmonary adenocarcinomas; settings: animal model; cited from earlier work
lung tumors = settings: 2.5 mg/100 g s.c. three times weekly for 20 weeks; within 52 weeks after start of injections; cited from earlier work

SMILES: CN(CCCC(=O)c1cccnc1)N=O [NNK, 4-(methylnitrosamino)-1-(3-pyridyl)-1-butanone]
- ELISA color intensity versus control hamsters [1]: significantly higher
- proliferation of human pulmonary adenocarcinoma cells [2]: stimulate the proliferation
- induction of pulmonary adenocarcinomas [3]: reproducibly induced pulmonary adenocarcinomas
- lung tumors developed (lung tumors): about 10 lung tumors/hamster

SMILES: CC(C)NCC(O)c1ccc(O)c(O)c1 (centres unmarked) [isoproterenol]
- proliferation of human pulmonary adenocarcinoma cells [2]: stimulate the proliferation
